For this test, the target named is T1, recombinant human GR (Homo sapiens, UniProt P04150).
T1 construct: purchased Panvera/Invitrogen P2812 (kit P2893)
T1 sequence (P04150 1-777): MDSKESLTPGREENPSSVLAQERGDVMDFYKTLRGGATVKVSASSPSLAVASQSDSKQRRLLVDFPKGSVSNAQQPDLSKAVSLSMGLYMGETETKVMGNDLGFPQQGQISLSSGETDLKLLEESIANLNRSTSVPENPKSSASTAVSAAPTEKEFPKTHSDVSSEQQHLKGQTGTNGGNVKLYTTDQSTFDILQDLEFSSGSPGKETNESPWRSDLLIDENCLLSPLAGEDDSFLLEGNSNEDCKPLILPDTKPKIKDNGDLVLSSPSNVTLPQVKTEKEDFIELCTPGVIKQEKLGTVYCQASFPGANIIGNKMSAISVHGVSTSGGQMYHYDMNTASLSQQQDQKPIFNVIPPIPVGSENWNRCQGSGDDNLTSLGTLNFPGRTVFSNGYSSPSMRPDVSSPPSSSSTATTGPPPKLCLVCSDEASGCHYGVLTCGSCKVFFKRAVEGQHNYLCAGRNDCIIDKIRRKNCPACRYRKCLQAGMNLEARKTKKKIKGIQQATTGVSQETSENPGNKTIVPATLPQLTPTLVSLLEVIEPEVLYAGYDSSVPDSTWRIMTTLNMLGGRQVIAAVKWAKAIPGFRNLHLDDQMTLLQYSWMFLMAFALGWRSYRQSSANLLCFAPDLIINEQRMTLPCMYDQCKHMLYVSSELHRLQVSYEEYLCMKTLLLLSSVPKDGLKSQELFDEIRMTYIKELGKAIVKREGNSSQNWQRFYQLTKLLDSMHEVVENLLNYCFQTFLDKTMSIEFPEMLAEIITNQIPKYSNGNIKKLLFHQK
As to the kind of experiment: Human Glucocorticoid Receptor (GR) Assay, fluorescence polarization. Format: binding. The following applies: GS Red tracer, incubated 2 h at r.t., XLfit model 205, read-out: GRhuFL_FP_v2 Mean IC50. In outline: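 After 2 h dark incubation at r.t., polarization reported displacement of the GS Red tracer from recombinant GR, in buffer with phosphate, molybdate, EDTA, DTT and Stabilizing Peptide. Controls: dexamethasone (100%) and DMSO (0%).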

For orientation: IC50 means the concentration needed to halve the response being measured. Turning to `C[C@H](NC(=O)C1(C)CC1)[C@H](Oc1ccc2c(cnn2-c2ccc(F)cc2)c1)c1ccc(Cl)cc1` [Example 222, N-[(1R,2S)-1-(4-chlorophenyl)-1-[1-(4-fluorophenyl)indazol-5-yl]oxy-propan-2-yl]-1-methyl-cyclopropane-1-carboxamide], the IC50 turned out to be 3.5 nM.

In the case of `C[C@H](NC(=O)C1(C)CC1)[C@H](Oc1ccc2c(cnn2-c2ccc(F)cc2)c1)c1cc(F)cc(Cl)c1` [Example 223, N-[(1R,2S)-1-(3-chloro-5-fluoro-phenyl)-1-[1-(4-fluorophenyl)indazol-5-yl]oxy-propan-2-yl]-1-methyl-cyclopropane-1-carboxamide], the IC50 was 3.9 nM.

On to `Cc1cc(C)c([C@@H](Oc2ccc3c(cnn3-c3ccc(F)cc3)c2)[C@H](C)NC(=O)C2(C)CC2)cc1C` [Example 224, N-[(1R,2S)-1-[1-(4-fluorophenyl)indazol-5-yl]oxy-1-(2,4,5-trimethylphenyl)propan-2-yl]-1-methyl-cyclopropane-1-carboxamide], for which the IC50 was 5.7 nM.

As for `Cc1cccc([C@@H](Oc2ccc3c(cnn3-c3ccc(F)cc3)c2)[C@H](C)NC(=O)C2(C)CC2)c1` [Example 225, N-[(1R,2S)-1-[1-(4-fluorophenyl)indazol-5-yl]oxy-1-(3-methylphenyl)propan-2-yl]-1-methyl-cyclopropane-1-carboxamide], the IC50 stood at 4.8 nM.

As for `C[C@H](NC(=O)C1(C)CC1)[C@H](Oc1ccc2c(cnn2-c2ccc(F)cc2)c1)c1ccc(C(C)(C)C)cc1` [Example 226, N-[(1R,2S)-1-[1-(4-fluorophenyl)indazol-5-yl]oxy-1-(4-tert-butylphenyl)propan-2-yl]-1-methyl-cyclopropane-1 carboxamide], the IC50 came out at 7.2 nM.

As for `COc1ccccc1[C@@H](Oc1ccc2c(cnn2-c2ccc(F)cc2)c1)[C@H](C)NC(=O)C1(C)CC1` [Example 227, N-[(1R,2S)-1-[1-(4-fluorophenyl)indazol-5-yl]oxy-1-(2-methoxyphenyl)propan-2-yl]-1-methyl-cyclopropane-1-carboxamide], the IC50 came out at 3.1 nM.

For `C[C@H](NC(=O)C(C)(F)F)[C@H](Oc1ccc2c(cnn2-c2ccc(F)cc2)c1)c1ccc(F)c(F)c1` [Example 228, N-[(1R,2S)-1-(3,4-difluorophenyl)-1-[1-(4-fluorophenyl)indazol-5-yl]oxy-propan-2-yl]-2,2-difluoro-propanamide], the IC50 is 8 nM.

As for `Cc1ccc([C@@H](Oc2ccc3c(cnn3-c3ccc(F)cc3)c2)[C@H](C)NC(=O)C(C)(F)F)cc1F` [Example 229, 2,2-difluoro-N-[(1R,2S)-1-(3-fluoro-4-methyl-phenyl)-1-[1-(4-fluorophenyl)indazol-5-yl]oxy-propan-2-yl]propanamide], the IC50 stood at 5.5 nM.

Consider `C[C@H](NC(=O)C(C)(F)F)[C@H](Oc1ccc2c(cnn2-c2ccc(F)cc2)c1)c1cccc(F)c1` [Example 230, 2,2-difluoro-N-[(1R,2S)-1-(3-fluorophenyl)-1-[1-(4-fluorophenyl)indazol-5-yl]oxy-propan-2-yl]propanamide], for which the IC50 was determined as 4.8 nM.

Turning to `COc1ccc([C@@H](Oc2ccc3c(cnn3-c3ccc(F)cc3)c2)[C@H](C)NC(=O)C(C)(F)F)cc1F` [Example 231, 2,2-difluoro-N-[(1R,2S)-1-(3-fluoro-4-methoxy-phenyl)-1-[1-(4-fluorophenyl)indazol-5-yl]oxy-propan-2-yl]propanamide], the IC50 was found to be 5.1 nM.

Take `C[C@H](NC(=O)C(C)(F)F)[C@H](Oc1ccc2c(cnn2-c2ccc(F)cc2)c1)c1cccc(Cl)c1` [Example 232, N-[(1R,2S)-1-(3-chlorophenyl)-1-[1-(4-fluorophenyl)indazol-5-yl]oxy-propan-2-yl]-2,2-difluoro-propanamide]: the IC50 was found to be 5.4 nM.

In the case of `Cc1cc(F)ccc1[C@@H](Oc1ccc2c(cnn2-c2ccc(F)cc2)c1)[C@H](C)NC(=O)C(C)(F)F` [Example 233, 2,2-difluoro-N-[(1R,2S)-1-(4-fluoro-2-methyl-phenyl)-1-[1-(4-fluorophenyl)indazol-5-yl]oxy-propan-2-yl]propanamide], the IC50 came out at 6.1 nM.

For the compound `Cc1ccc(F)cc1[C@@H](Oc1ccc2c(cnn2-c2ccc(F)cc2)c1)[C@H](C)NC(=O)C(C)(F)F` [Example 234, 2,2-difluoro-N-[(1R,2S)-1-(5-fluoro-2-methyl-phenyl)-1-[1-(4-fluorophenyl)indazol-5-yl]oxy-propan-2-yl]propanamide], the IC50 turned out to be 6.4 nM.

On to `COc1ccc(F)cc1[C@@H](Oc1ccc2c(cnn2-c2ccc(F)cc2)c1)[C@H](C)NC(=O)C(C)(F)F` [Example 235, 2,2-difluoro-N-[(1R,2S)-1-(5-fluoro-2-methoxy-phenyl)-1-[1-(4-fluorophenyl)indazol-5-yl]oxy-propan-2-yl]propanamide], for which the IC50 amounted to 5.4 nM.

On to `COc1c(C)cc([C@@H](Oc2ccc3c(cnn3-c3ccc(F)cc3)c2)[C@H](C)NC(=O)C(C)(F)F)cc1C` [Example 236, 2,2-difluoro-N-[(1R,2S)-1-[1-(4-fluorophenyl)indazol-5-yl]oxy-1-(4-methoxy-3,5-dimethyl-phenyl)propan-2-yl]propanamide], for which the half-maximal inhibitory concentration (IC50) is 7.2 nM.

Consider `C[C@H](NC(=O)C(C)(F)F)[C@H](Oc1ccc2c(cnn2-c2ccc(F)cc2)c1)c1ccc(Cl)cc1` [Example 237, N-[(1R,2S)-1-(4-chlorophenyl)-1-[1-(4-fluorophenyl)indazol-5-yl]oxy-propan-2-yl]-2,2-difluoro-propanamide], for which the IC50 is 8.4 nM.

Regarding `C[C@H](NC(=O)C(C)(F)F)[C@H](Oc1ccc2c(cnn2-c2ccc(F)cc2)c1)c1cc(F)cc(Cl)c1` [Example 238, N-[(1R,2S)-1-(3-chloro-5-fluoro-phenyl)-1-[1-(4-fluorophenyl)indazol-5-yl]oxy-propan-2-yl]-2,2-difluoro-propanamide], the IC50 worked out at 6.8 nM.

`Cc1cccc([C@@H](Oc2ccc3c(cnn3-c3ccc(F)cc3)c2)[C@H](C)NC(=O)C(C)(F)F)c1` [Example 239, 2,2-difluoro-N-[(1R,2S)-1-[1-(4-fluorophenyl)indazol-5-yl]oxy-1-(3-methylphenyl)propan-2-yl]propanamide]: the IC50 stood at 9 nM.

For the compound `Cc1ccc([C@@H](Oc2ccc3c(cnn3-c3ccc(F)cc3)c2)[C@H](C)NC(=O)C(C)(C)F)cc1C` [Example 240, N-[(1R,2S)-1-(3,4-dimethylphenyl)-1-[1-(4-fluorophenyl)indazol-5-yl]oxy-propan-2-yl]-2-fluoro-2-methyl-propanamide], the IC50 was 5.9 nM.

As to `C[C@H](NC(=O)C(C)(C)F)[C@H](Oc1ccc2c(cnn2-c2ccc(F)cc2)c1)c1ccc(F)c(F)c1` [Example 241, N-[(1R,2S)-1-(3,4-difluorophenyl)-1-[1-(4-fluorophenyl)indazol-5-yl]oxy-propan-2-yl]-2-fluoro-2-methyl-propanamide], the IC50 amounted to 4.9 nM.

For the compound `Cc1ccc([C@@H](Oc2ccc3c(cnn3-c3ccc(F)cc3)c2)[C@H](C)NC(=O)C(C)(C)F)cc1F` [Example 242, 2-fluoro-N-[(1R,2S)-1-(3-fluoro-4-methyl-phenyl)-1-[1-(4-fluorophenyl)indazol-5-yl]oxy-propan-2-yl]-2-methyl-propanamide], the IC50 turned out to be 5.5 nM.

Turning to `C[C@H](NC(=O)C(C)(C)F)[C@H](Oc1ccc2c(cnn2-c2ccc(F)cc2)c1)c1cccc(F)c1` [Example 243, 2-fluoro-N-[(1R,2S)-1-(3-fluorophenyl)-1-[1-(4-fluorophenyl)indazol-5-yl]oxy-propan-2-yl]-2-methyl-propanamide], the concentration for half-maximal inhibition (IC50) was determined as 5.5 nM.

As for `Cc1ccc(C)c([C@@H](Oc2ccc3c(cnn3-c3ccc(F)cc3)c2)[C@H](C)NC(=O)C(C)(C)F)c1` [Example 244, N-[(1R,2S)-1-(2,5-dimethylphenyl)-1-[1-(4-fluorophenyl)indazol-5-yl]oxy-propan-2-yl]-2-fluoro-2-methyl-propanamide], the IC50 amounted to 8.3 nM.

On to `Cc1ccc([C@@H](Oc2ccc3c(cnn3-c3ccc(F)cc3)c2)[C@H](C)NC(=O)C(C)(C)F)c(C)c1` [Example 245, N-[(1R,2S)-1-(2,4-dimethylphenyl)-1-[1-(4-fluorophenyl)indazol-5-yl]oxy-propan-2-yl]-2-fluoro-2-methyl-propanamide], for which the IC50 is 5.5 nM.

Turning to `COc1ccc([C@@H](Oc2ccc3c(cnn3-c3ccc(F)cc3)c2)[C@H](C)NC(=O)C(C)(C)F)cc1F` [Example 246, 2-fluoro-N-[(1R,2S)-1-(3-fluoro-4-methoxy-phenyl)-1-[1-(4-fluorophenyl)indazol-5-yl]oxy-propan-2-yl]-2-methyl-propanamide], the IC50 was 6 nM.

With `C[C@H](NC(=O)C(C)(C)F)[C@H](Oc1ccc2c(cnn2-c2ccc(F)cc2)c1)c1cccc(Cl)c1` [Example 247, N-[(1R,2S)-1-(3-chlorophenyl)-1-[1-(4-fluorophenyl)indazol-5-yl]oxy-propan-2-yl]-2-fluoro-2-methyl-propanamide], the IC50 amounted to 4.4 nM.

These data come from patent US8143290B2, “Chemical compounds 572” (AstraZeneca AB, priority 2006, dated 2012).
